Assay results published in US11591569B2, “Methods for epicardial differentiation of human pluripotent stem cells” (Wisconsin Alumni Research Foundation, priority 2015, dated 2023).

Experiments:
Type in all cases: cell-based, human
[1] = system: hPSC-derived epicardial cells; experiment: Long-term expansion of hPSC-derived epicardial cells
Experimental: Long-Term Maintenance of hPSC-Derived Epicardial Cells: To expand the epicardial cells, confluent cells on day 3 or 4 of differentiation were split 1:3 at a density of 0.04 to 0.08 million cells/cm^2 using Versene (Life Technologies) or Accutase and routinely passaged onto gelatin-coated plates in LaSR basal medium or RPMI/Vc/Ins medium and 0.5 μM A83-01 (Stemgent) or 2 μM SB431542 (Stemgent) with medium changed daily until the cells reached confluence. Overnight treatment of 5 μM Y27632 and 1% human recombinant albumin (Sigma-Aldrich) on single cells during passage was used to improve cell attachment and survival, but they were not required once cells attached.
Flow Cytometry Analysis: Cells were dissociated into single cells with Accutase for 10 minutes and then fixed with 1% paraformaldehyde for 20 minutes at room temperature and stained with primary and secondary antibodies (Table 1) in PBS plus 0.1% Triton X-100 and 0.5% BSA. Data were collected on a FACSCaliber flow cytometer (Beckton Dickinson) and analyzed using FlowJo. FACS gating was based on the corresponding isotype antibody control.

[2] = system: hPSC-derived cardiac progenitors; experiment: Epicardial (WT1+) differentiation of hPSC-derived cardiac progenitors, flow cytometry at day 12; details: for cTnT+WT1+ cells: day 6 progenitors treated day 7 to day 9, day 12 flow cytometry; for WT1+ cell differentiation compared with 3 μM CHIR99021: 0.3 μM, day 7 to day 9, GiWiGi protocol, flow cytometry at day 12
Experimental: Epicardial Cell Generation Via Activation of Canonical Wnt Signaling: At day 6, cardiac progenitor cells were singularized with Accutase at 37° C. for 5 minutes and then seeded onto a gelatin-coated cell culture dish at 20,000-80,000 cells/cm^2 in LaSR basal medium (advanced DMEM/F12 with 100 μg/mL ascorbic acid) or RPMI/Vc/Ins medium (100 μg/mL ascorbic acid and 1 μg/mL human recombinant or bovine insulin (Sigma)) with 5 μM ROCK inhibitor Y-27632 for 24 hours. […] Data were collected on a FACSCaliber flow cytometer (Beckton Dickinson) and analyzed using FlowJo. FACS gating was based on the corresponding isotype antibody control. Pro-epicardium arises from ISL1+NKX2.5+ second heart field progenitors in vivo^1,41.

[3] = system: hPSCs; experiment: Cardiac progenitor induction from hPSCs, gene expression by quantitative RT-PCR; details: 6 μM CHIR99021 at day 0 in RPMI medium, H13 hESCs
Experimental: Cardiac Progenitor Induction Via Modulation of Canonical Wnt Signaling: When hPSCs maintained on a SyntheMax-coated surface achieved confluence, cells were singularized with Accutase (Innovative Cell Technologies) at 37° C. for 5 minutes and then seeded onto a SyntheMax-coated cell culture dish at 250,000 cells/cm^2 in mTeSR1 or E8 supplemented with 5 μM ROCK inhibitor Y-27632 (Selleckchem) (day −3) for 24 hours. Cells were then cultured in mTeSR1 or E8, changed daily. At day 0, cells were treated with 6 μM CHIR99021 (Selleckchem) for 24 hours in RPMI medium, followed by a change with RPMI medium at day 1. 2.5-5 μM IWP2 (Tocris) was added at day 3 and removed during the medium change at day 5.
(§1) RT-PCR and Quantitative RT-PCR: Total RNA was prepared with the RNeasy mini kit (QIAGEN) and treated with DNase (QIAGEN). 1 μg RNA was reverse transcribed into cDNA via Oligo (dT) with Superscript III Reverse Transcriptase (Invitrogen). Real-time quantitative PCR was done in triplicate with iQSYBR Green SuperMix (Bio-Rad). GAPDH was used as an endogenous housekeeping control.

[4] = system: hPSC-derived epicardial cells; experiment: EMT induction of hPSC-derived epicardial cells; details: 10 ng/mL bFGF, 5 ng/mL TGFβ1; for Cell morphology after treatment: H13 hESC-derived epicardial cells, day 18; for Expression of WT1 and ZO1: immunostaining; for EMT (CDH1 decreased, CDH2 and SNAIL2 increased versus untreated controls): qPCR and E-cadherin immunostaining
Experimental: Single Cell Passage and EMT Induction: Confluent WT1+ cells were dissociated into single cells with Accutase at 37° C. for 5 minutes and then seeded onto a gelatin-coated cell culture dish at 10,000 cells/cm^2 in LaSR basal medium supplemented with 5 μM ROCK inhibitor Y-27632 for 24 hr. After 24 hours, medium was changed to LaSR basal medium and cells were treated with TGFβ1 or bFGF (R&D Systems) as indicated. Medium was changed every 3 days until analysis.
Immunostaining Analysis: Cells were fixed with 4% paraformaldehyde for 15 minutes at room temperature and then stained with primary and secondary antibodies (Table 1) in PBS plus 0.4% Triton X-100 and 5% non-fat dry milk (Bio-Rad). Nuclei were stained with Gold Anti-fade Reagent with DAPI (Invitrogen). An epifluorescence microscope (Leica DM IRB) with a QImaging® Retiga 4000R camera was used for imaging analysis.
as §1

[5] = day 6 ISL1+NKX2.5+ progenitors treated 48 hours (day 7 to day 9), H13 hESC-derived day 12 cultures, concentrations per Table 3

Molecule: Cc1cccc(-c2nn(C(=S)Nc3ccccc3)cc2-c2ccnc3ccccc23)n1 [A83-01]
- Expandability of epicardial cells from additional hPSC lines ([1]; 19-9-11 iPSC-derived epicardial cells, 0.5 μM A83-01): expandable
- Expansion with retention of epithelial morphology and WT1 expression ([1]; H13 hESC-derived day 18 epicardial cells, treated 3 days, 0.5 μM): enabled expansion of hPSC-derived epicardial cells that retained polarized epithelial morphology and WT1 expression

Molecule: Cc1c[nH]c(-c2cnc(NCCNc3ccc(C#N)cn3)nc2-c2ccc(Cl)cc2Cl)n1 [CHIR99021]
- WT1+ cells ([2]; 3 μM CHIR, initial density 0.06 million cells per cm^2, LaSR basal medium, day 12): more than 95%
- WT1+ cells [2, 5]: more than 85%
- Gene expression changes in the first 24 hr after addition [3]: down-regulation of the pluripotency markers OCT4 and NANOG, and induction of the primitive streak like gene T

Molecule: c1cc(-c2cnn3cc(-c4ccc(OCCN5CCCCC5)cc4)cnc23)ccn1 [dorsomorphin]
- WT1+ cells [2, 5]: about 10%
- cTnT+WT1+ cells [2]: 2%

Molecule: CC1=C(/C=C/C(C)=C/C=C/C(C)=C/C(=O)O)C(C)(C)CCC1 [retinoic acid]
- WT1+ cells [2, 5]: about 10%
- cTnT+WT1+ cells [2]: 2%

Molecule: BIO-acetoxime
- WT1+ cell differentiation compared with 3 μM CHIR99021 [2]: induced WT1+ cell differentiation to a similar extent as 3 μM CHIR99021

Molecule: CHIR98014
- WT1+ cell differentiation compared with 3 μM CHIR99021 [2]: induced WT1+ cell differentiation to a similar extent as 3 μM CHIR99021

Molecule: TGFβ: TGFβ pathway protein modulator (R&D Systems)
- Cell morphology after treatment [4]: fusiform-shaped appearance
- Expression of WT1 and ZO1 [4]: significantly decreased
- EMT (CDH1 decreased, CDH2 and SNAIL2 increased versus untreated controls) [4]: induced EMT

Molecule: bFGF: FGF pathway protein modulator (R&D Systems)
- Cell morphology after treatment [4]: fibroid spindle
- Expression of WT1 and ZO1 [4]: significantly decreased
- EMT (CDH1 decreased, CDH2 and SNAIL2 increased versus untreated controls) [4]: induced EMT

B1: Bone Morphogenetic Protein 4 (protein, UniProt P12644 293-408, looked up)
Bone morphogenetic protein 4: SPKHHSQRARKKNKNCRRHSLYVDFSDVGWNDWIVAPPGYQAFYCHGDCPFPLADHLNSTNHAIVQTLVNSVNSSIPKACCVPTELSAISMLYLDEYDKVVLKNYQEMVVEGCGCR
notes: TGFβ superfamily growth factor
- Cell population obtained in the presence of CHIR ([2]; co-treatment with CHIR (2 μM CHIR99021, FIG. 10), day 7 to day 9, day 12 flow cytometry of cTnT and WT1): yielded an unknown population at the expense of WT1+ cells
- WT1+ cells [2, 5]: about 10%
- cTnT+WT1+ cells [2]: 2%
